Among the data in patent publication US20240239781A1, “1H-PYRAZOLE DERIVATIVES AS SIGMA LIGANDS” (ACONDICIONAMIENTO TARRASENSE, priority 2021, published 2024) are Ki values, retold here.

Some results are limits rather than exact numbers.

In one assay the target is T1, human σ2/TMEM97 receptor (Homo sapiens, UniProt Q5BJF2).
T1 construct: expressed in transfected cells; host or cells: HEK-293
Description: Binding assay to human σ2/TMEM97 receptor ([3H]-DTG, transfected HEK-293 membranes). As to conditions: class scale, read-out: Binding σ-2 Ki. How it is done:
Transfected HEK-293 membranes (15 μg) were incubated with 10 nM [^3H]-1,3-Di-o-tolylguanidine (DTG) in assay buffer containing Tris-HCl 50 mM at pH 8.0. NSB (non-specific binding) was measured by adding 10 μM haloperidol. The binding of the test compound was measured at either one concentration (% inhibition at 1 or 10 μM) or five different concentrations to determine affinity values (Ki). Plates were incubated at 25° C. for 120 minutes. After the incubation period, the reaction mix was transferred to MultiScreen HTS, FC plates (Millipore), filtered and washed 3 times with ice-cold 10 mM Tris-HCL (pH 8.0). Filters were dried and counted at approximately 40% efficiency in a MicroBeta scintillation counter (Perkin-Elmer) using EcoScint liquid scintillation cocktail.

In the next assay the target is T2, human σ1 receptor (Homo sapiens, UniProt Q99720).
T2 construct: expressed in transfected cells; host or cells: HEK-293
T2 sequence (Q99720 whole entry): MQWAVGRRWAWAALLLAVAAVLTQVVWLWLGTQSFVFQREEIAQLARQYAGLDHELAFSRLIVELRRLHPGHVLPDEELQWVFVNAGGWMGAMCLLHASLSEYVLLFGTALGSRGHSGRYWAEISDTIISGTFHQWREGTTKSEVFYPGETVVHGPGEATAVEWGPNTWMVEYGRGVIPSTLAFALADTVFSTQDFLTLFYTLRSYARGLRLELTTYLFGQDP
Description: Human σ1 receptor radioligand assay ([3H](+)-pentazocine, transfected HEK-293 membranes). The settings on record: class scale, read-out: Binding σ-1 Ki. Here is the method:
Transfected HEK-293 membranes (7 μg) were incubated with 5 nM of [^3H](+)-pentazocine in assay buffer containing Tris-HCl 50 mM at pH 8. NBS (non-specific binding) was measured by adding 10 μM haloperidol. The binding of the test compound was measured at either one concentration (% inhibition at 1 or 10 μM) or five different concentrations to determine affinity values (Ki). Plates were incubated at 37° C. for 120 minutes. After the incubation period, the reaction mix was then transferred to MultiScreen HTS, FC plates (Millipore), filtered and plates were washed 3 times with ice-cold 10 mM Tris-HCL (pH7.4). Filters were dried and counted at approximately 40% efficiency in a MicroBeta scintillation counter (Perkin-Elmer) using EcoScint liquid scintillation cocktail.

T1 sequence (Q5BJF2 whole entry): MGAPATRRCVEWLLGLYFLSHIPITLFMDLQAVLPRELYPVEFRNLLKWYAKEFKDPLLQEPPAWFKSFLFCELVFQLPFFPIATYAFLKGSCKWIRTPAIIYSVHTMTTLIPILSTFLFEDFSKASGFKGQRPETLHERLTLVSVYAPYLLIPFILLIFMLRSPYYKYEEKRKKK

As for `CCn1nc(-c2cc(C)on2)c(C(=O)N2CCCC3(CCN(CCC(C)(C)C)CC3)C2)c1Cl` [Example 150, (5-Chloro-1-ethyl-3-(5-methylisoxazol-3-yl)-1H-pyrazol-4-yl)(9-(3,3-dimethylbutyl)-2,9-diazaspiro[5.5]undecan-2-yl)methanone], the inhibition constant Ki is below 100 nM on human σ2/TMEM97 receptor and 100 to 500 nM on human σ1 receptor.
Consider `CCn1nc(-c2cccc(C(F)(F)F)n2)c(CN2CC3(CCN(CCC(C)(C)C)CC3)CC2=O)c1Cl` [Example 229, 2-((5-Chloro-1-ethyl-3-(6-(trifluoromethyl)pyridin-2-yl)-1H-pyrazol-4-yl)methyl)-8-(3,3-dimethylbutyl)-2,8-diazaspiro[4.5]decan-3-one], for which the inhibition constant (Ki) at human σ2/TMEM97 receptor and on human σ1 receptor was below 100 nM in each case.
Take `Cc1cc(-c2nn(C)c(Cl)c2CN2CCCC[C@H](NCCC(C)C)C2)no1` [Example 12, (S)-1-((5-Chloro-1-methyl-3-(5-methylisoxazol-3-yl)-1H-pyrazol-4-yl)methyl)-N-isopentylazepan-3-amine]: the Ki at human σ2/TMEM97 receptor was above 1000 nM; on human σ1 receptor, 100 to 500 nM.
For `CCn1nc(-c2cc(C)on2)c(C(=O)N[C@@H]2CCN(CCC(C)(C)C)C2)c1Cl` [Example 165, (R)-5-Chloro-N-(1-(3,3-dimethylbutyl)pyrrolidin-3-yl)-1-ethyl-3-(5-methylisoxazol-3-yl)-1H-pyrazole-4-carboxamide], in that order: below 100 nM and below 100 nM.
The corresponding values for `Cc1cc(-c2nn(C)c(Cl)c2C(=O)N2CC[C@]3(C2)C[C@@H](NCCC(C)(C)C)C3)no1` [Example 123, (5-Chloro-1-methyl-3-(5-methylisoxazol-3-yl)-1H-pyrazol-4-yl)((2r,4s)-2-((3,3-dimethylbutyl)amino)-6-azaspiro[3.4]octan-6-yl)methanone] are below 100 nM and above 1000 nM.
`Cc1cc(-c2nn(C)c(Cl)c2C(=O)N2CCC3(CCC(NCCC(C)C)CC3)CC2)no1` [Example 93, (5-Chloro-1-methyl-3-(5-methylisoxazol-3-yl)-1H-pyrazol-4-yl)(9-(isopentylamino)-3-azaspiro[5.5]undecan-3-yl)methanone]: the Ki at human σ2/TMEM97 receptor is 100 to 500 nM; at human σ1 receptor, above 1000 nM.
The corresponding values for `Cn1nc(-c2ccccn2)c(CN2CCCCC(NCCC(C)(C)C)C2)c1Cl` (stereo not shown) [Example 25, 1-((5-Chloro-1-methyl-3-(pyridin-2-yl)-1H-pyrazol-4-yl)methyl)-N-(3,3-dimethylbutyl)azepan-3-amine] are above 1000 nM and below 100 nM.
The corresponding values for `Cc1cccc(-c2nn(C)c(Cl)c2C(=O)NC2CCN(CCC(C)(C)C)CC2)n1` [Example 168, 5-Chloro-N-(1-(3,3-dimethylbutyl)piperidin-4-yl)-1-methyl-3-(6-methylpyridin-2-yl)-1H-pyrazole-4-carboxamide] are below 100 nM and 100 to 500 nM.
As for `Cc1cc(-c2nn(C)c(Cl)c2CN2CCCOC(CNCCC(C)C)C2)no1` (stereo not shown) [Example 64, N-((4-((5-Chloro-1-methyl-3-(5-methylisoxazol-3-yl)-1H-pyrazol-4-yl)methyl)-1,4-oxazepan-2-yl)methyl)-3-methylbutan-1-amine], the inhibition constant (Ki) at human σ2/TMEM97 receptor and on human σ1 receptor was 100 to 500 nM each time.
`CCc1nc(C)c(-c2nn(C)c(Cl)c2C(=O)N2CCC3(CCN(CCC(C)(C)C)CC3)CC2)o1` [Example 176, (5-Chloro-3-(2-ethyl-4-methyloxazol-5-yl)-1-methyl-1H-pyrazol-4-yl)(9-(3,3-dimethylbutyl)-3,9-diazaspiro[5.5]undecan-3-yl)methanone]: the figures for the Ki on human σ2/TMEM97 receptor and on human σ1 receptor were below 100 nM and above 1000 nM, respectively.
As for `CCn1nc(-c2cc(C(C)C)on2)c(C(=O)N2CCCC3(CCN(CCC(C)(C)C)CC3)C2)c1Cl` [Example 152, (5-Chloro-1-ethyl-3-(5-isopropylisoxazol-3-yl)-1H-pyrazol-4-yl)(9-(3,3-dimethylbutyl)-2,9-diazaspiro[5.5]undecan-2-yl)methanone], the inhibition constant (Ki) was below 100 nM on human σ2/TMEM97 receptor and 100 to 500 nM on human σ1 receptor.
The corresponding values for `Cc1cc(-c2nn(C)c(Cl)c2C(=O)N2CC[C@]3(C2)C[C@H](NCCC(C)(C)C)C3)no1` [Example 169, (5-Chloro-1-methyl-3-(5-methylisoxazol-3-yl)-1H-pyrazol-4-yl)((2s,4r)-2-((3,3-dimethylbutyl)amino)-6-azaspiro[3.4]octan-6-yl)methanone] are below 100 nM and above 1000 nM.
For `Cc1cc(-c2nn(C)c(Cl)c2CN2CCC3(CCN(CCC(C)(C)C)CC3)C2=O)no1` [Example 114, 2-((5-Chloro-1-methyl-3-(5-methylisoxazol-3-yl)-1H-pyrazol-4-yl)methyl)-8-(3,3-dimethylbutyl)-2,8-diazaspiro[4.5]decan-1-one], in that order: 100 to 500 nM and 100 to 500 nM.
Consider `Cc1cc(-c2nn(C)c(Cl)c2CN2CCCC(C3(NCCC(C)C)CC3)C2)no1` (stereo not shown) [Example 63, 1-(1-((5-Chloro-1-methyl-3-(5-methylisoxazol-3-yl)-1H-pyrazol-4-yl)methyl)piperidin-3-yl)-N-isopentylcyclopropanamine], for which the inhibition constant (Ki) at human σ2/TMEM97 receptor is 100 to 500 nM; at human σ1 receptor, below 100 nM.
For `Cc1cc(-c2nn(-c3ccccc3)c(Cl)c2C(=O)N2CCC3(CCN(CCC(C)(C)C)CC3)CC2)no1` [Example 101, (5-Chloro-3-(5-methylisoxazol-3-yl)-1-phenyl-1H-pyrazol-4-yl)(9-(3,3-dimethylbutyl)-3,9-diazaspiro[5.5]undecan-3-yl)methanone], in that order: below 100 nM and below 100 nM.
The corresponding values for `CC(C)CCNC1CCCCN(Cc2c(-c3cc(C4CC4)on3)nn(C)c2Cl)C1` (stereo not shown) [Example 19, 1-((5-Chloro-3-(5-cyclopropylisoxazol-3-yl)-1-methyl-1H-pyrazol-4-yl)methyl)-N-isopentylazepan-3-amine] are above 1000 nM and 500 to 1000 nM.
For `Cc1cc(-c2nn(C)c(Cl)c2CN2CCC(CNCCC(C)C)CC2)no1` [Example 41, N-((1-((5-Chloro-1-methyl-3-(5-methylisoxazol-3-yl)-1H-pyrazol-4-yl)methyl)piperidin-4-yl)methyl)-3-methylbutan-1-amine], in that order: 100 to 500 nM and 100 to 500 nM.
For the molecule `Cc1cc(-c2nn(C)c(Cl)c2CN2CCC(CNCC(C)C)C2)no1` (stereo not shown) [Example 49, N-((1-((5-Chloro-1-methyl-3-(5-methylisoxazol-3-yl)-1H-pyrazol-4-yl)methyl)pyrrolidin-3-yl)methyl)-2-methylpropan-1-amine], the results for the Ki on human σ2/TMEM97 receptor and at human σ1 receptor were above 1000 nM and 100 to 500 nM, respectively.
The corresponding values for `Cc1cc(-c2nn(C)c(Cl)c2CN2CC[C@H](CNCCc3ccccc3)C2)no1` [Example 71, (R)-N-((1-((5-Chloro-1-methyl-3-(5-methylisoxazol-3-yl)-1H-pyrazol-4-yl)methyl)pyrrolidin-3-yl)methyl)-2-phenylethanamine] are 100 to 500 nM and above 1000 nM.
`Cc1cc(-c2nn(C)c(Cl)c2CN2CCC3(CC2)CCN(CCC(C)(C)C)C3)no1` [Example 50, 3-(5-Chloro-4-((2-(3,3-dimethylbutyl)-2,8-diazaspiro[4.5]decan-8-yl)methyl)-1-methyl-1H-pyrazol-3-yl)-5-methylisoxazole]: the values for the Ki on human σ2/TMEM97 receptor and on human σ1 receptor were below 100 nM and 100 to 500 nM, respectively.

What is called Ki is a dissociation constant, usually derived from enzyme kinetics or from competition with a known ligand.
